Reference: patent US11591355B2 (Peloton Therapeutics, Inc., priority 2017, dated 2023)

Columns and labels:
Human CD73 = molecular target: T1, Human CD73 (Homo sapiens, UniProt P21589); assay: CD73 Enzyme Assay; assay type: biochemical; settings: 0.25 nM hCD73, 25 μM AMP, kinetic read at 360 nm; read-out: CD73 Enzyme Assay IC50
T1 construct: purchased R&D Systems; host or cells: CHO cells
T1 sequence (P21589 27-549): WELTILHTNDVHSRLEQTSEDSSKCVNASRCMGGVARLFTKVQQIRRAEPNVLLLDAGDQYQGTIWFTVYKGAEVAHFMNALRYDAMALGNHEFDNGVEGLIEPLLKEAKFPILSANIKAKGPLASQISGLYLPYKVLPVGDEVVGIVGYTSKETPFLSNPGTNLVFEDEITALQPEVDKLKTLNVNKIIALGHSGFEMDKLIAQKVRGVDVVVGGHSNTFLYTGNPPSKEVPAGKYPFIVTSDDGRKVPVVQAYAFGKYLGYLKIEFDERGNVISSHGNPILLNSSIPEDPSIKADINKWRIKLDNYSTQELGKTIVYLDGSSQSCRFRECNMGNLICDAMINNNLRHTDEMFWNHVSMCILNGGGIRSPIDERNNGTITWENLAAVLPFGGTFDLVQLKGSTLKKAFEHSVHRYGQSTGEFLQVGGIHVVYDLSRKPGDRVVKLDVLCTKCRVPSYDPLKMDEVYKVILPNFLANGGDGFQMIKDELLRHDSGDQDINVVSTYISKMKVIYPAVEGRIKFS

[1] = molecular target: T2, CD73 on U138 human neuroglioma cells (Homo sapiens, UniProt P21589); assay: CD73 Cell-Based Assay; settings: U138 cells, AMP substrate, 2 hours at 37° C., inorganic phosphate by malachite green
T2 construct: U138 cells were obtained from ATCC and cultured in DMEM with 10% FBS; host or cells: U138 human neuroglioma cells
T2 sequence (P21589 27-549): T1 sequence (P21589 27-549)
Experimental: U138 human neuroglioma cells were used in these experiments. U138 cells were obtained from ATCC and cultured in DMEM with 10% FBS. 2500 cells were seeded into 96-well plate with 100 μL of media the day before the experiment. Cells were washed twice with 200 μL of assay buffer (20 mM HEPES, pH 7.4; 137 mM NaCl; 5.4 mM KCl; 1.3 mM CaCl2); 4.2 mM NaHCO3; 1 mg/mL glucose) to remove residual inorganic phosphate. After washing, 100 μL of buffer was added to each well, then 100 μL of a mixture of AMP substrate (200 μM) and diluted compound was added to each well. The cells were incubated at 37° C. (with 5% CO2) for 2 hours. 50 μL of supernatant was transferred to a 96-well assay plate and the concentration of inorganic phosphate was determined using malachite green reagent (R&D System; Cat: DY996).

| Structure (SMILES) | IC50 (Human CD73) [nM] | IC50 [1] [nM] |
| --- | --- | --- |
| O=P(O)(O)COC[C@H]1O[C@@H](n2cnc3c(NCc4ccccc4)nc(Cl)nc32)[C@H](O)[C@@H]1O [Compound 3, [(2R,3S,4R,5R)-5-[6-(benzylamino)-2-chloro-purin-9-yl]-3,4-dihydroxy-tetrahydrofuran-2-yl]methoxymethyl-phosphonic acid] | 100 to 1000 | 10 to 100 |
| N#Cc1nc(NCc2ccccc2)c2ncn([C@@H]3O[C@H](COCP(=O)(O)O)[C@@H](O)[C@H]3O)c2n1 [Compound 4, [(2R,3S,4R,5R)-5-[6-(benzylamino)-2-cyano-purin-9-yl]-3,4-dihydroxy-tetrahydrofuran-2-yl]methoxymethyl-phosphonic acid] | < 10 | 100 to 1000 |
| Cn1cc(-c2nc(NCc3ccccc3)c3ncn([C@@H]4O[C@H](COCP(=O)(O)O)[C@@H](O)[C@H]4O)c3n2)cn1 [Compound 9, [(2R,3S,4R,5R)-5-[6-(benzylamino)-2-(1-methylpyrazol-4-yl)-purin-9-yl]-3,4-dihydroxy-tetrahydro-furan-2-yl]methoxy-methylphosphonic acid] | 100 to 1000 | > 1000 |
| CC(C)Nc1ncnc2c1ncn2[C@@H]1O[C@H](COCP(=O)(O)O)[C@@H](O)[C@H]1O [Compound 12, [(2R,3S,4R,5R)-3,4-dihydroxy-5-[6-(iso-propylamino)purin-9-yl]tetrahydrofuran-2-yl]methoxymethyl-phosphonic acid] | 100 to 1000 | > 1000 |
| CC(C)Nc1nc(Cl)nc2c1ncn2[C@@H]1O[C@H](COCP(=O)(O)O)[C@@H](O)[C@H]1O [Compound 15, [(2R,3S,4R,5R)-5-[2-chloro-6-(isopropyl-amino)purin-9-yl]-3,4-dihydroxy-tetra-hydrofuran-2-yl]-methoxymethylphos-phonic acid] | 10 to 100 | 100 to 1000 |
| CC(C)Nc1nc(C#N)nc2c1ncn2[C@@H]1O[C@H](COCP(=O)(O)O)[C@@H](O)[C@H]1O [Compound 16, [(2R,3S,4R,5R)-5-[2-cyano-6-(isopropyl-amino)purin-9-yl]-3,4-dihydroxy-tetrahydrofuran-2-yl]methoxymethyl-phosphonic acid] | 10 to 100 | 100 to 1000 |
| CC(Nc1ncnc2c1ncn2[C@@H]1O[C@H](COCP(=O)(O)O)[C@@H](O)[C@H]1O)c1ccccc1 (stereo partly drawn) [Compound 18, [(2R,3S,4R,5R)-3,4-dihydroxy-5-[6-(1-phenylethylamino)purin-9-yl]tetrahydrofuran-2-yl]methoxymethylphosphonic acid] | 100 to 1000 | 100 to 1000 |
| C[C@@H](Nc1nc(Cl)nc2c1ncn2[C@@H]1O[C@H](COCP(=O)(O)O)[C@@H](O)[C@H]1O)c1ccccc1 [Compound 20, [(2R,3S,4R,5R)-5-[2-chloro-6-[[(1R)-1-phenylethyl]amino]-purin-9-yl]-3,4-dihydroxy-tetrahydro-furan-2-yl]methoxy-methylphosphonic acid] | 10 to 100 | 10 to 100 |
| C[C@H](Nc1nc(Cl)nc2c1ncn2[C@@H]1O[C@H](COCP(=O)(O)O)[C@@H](O)[C@H]1O)c1ccccc1 [Compound 21, ((((2R,3S,4R,5R)-5-(2-chloro-6-(((S)-1-phenylethyl)amino)-9H-purin-9-yl)-3,4-dihydroxytetrahydrofuran-2-yl)methoxy)methyl)phosphonic acid] | 10 to 100 | 10 to 100 |
| O=P(O)(O)COC[C@H]1O[C@@H](n2cnc3c(NC4CCCC4)ncnc32)[C@H](O)[C@@H]1O [Compound 32, [(2R,3S,4R,5R)-5-[6-(cyclopentylamino)-purin-9-yl]-3,4-dihydroxy-tetrahydro-furan-2-yl]methoxy-methylphosphonic acid] | 100 to 1000 | 100 to 1000 |
| C[C@H](Nc1nc(C#N)nc2c1ncn2[C@@H]1O[C@H](COCP(=O)(O)O)[C@@H](O)[C@H]1O)c1ccccc1 [Compound 36, [(2R,3S,4R,5R)-5-[2-cyano-6-[[(1S)-1-phenylethyl]amino]purin-9-yl]-3,4-dihydroxy-tetrahydrofuran-2-yl]methoxymethylphosphonic acid; 2,2,2-trifluoroacetic acid] | 10 to 100 | 10 to 100 |
| O=P(O)(O)COC[C@H]1O[C@@H](n2cnc3c(N4CCCC4)ncnc32)[C@H](O)[C@@H]1O [Compound 43, [(2R,3S,4R,5R)-3,4-dihydroxy-5-(6-pyrrolidin-1-ylpurin-9-yl)tetrahydrofuran-2-yl]methoxymethyl-phosphonic acid] | 100 to 1000 | 100 to 1000 |
| O=P(O)(O)COC[C@H]1O[C@@H](n2cnc3c(-c4ccccc4)ncnc32)[C@H](O)[C@@H]1O [Compound 46, [(2R,3S,4R,5R)-3,4-dihydroxy-5-(6-phenylpurin-9-yl)tetrahydrofuran-2-yl]methoxymethylphosphonic acid] | > 1000 | > 1000 |
| C[C@H](Nc1ncnc2c1ncn2[C@@H]1O[C@H](COCP(=O)(O)O)[C@@H](O)[C@H]1O)c1ccc(F)cc1 [Compound 49, [(2R,3S,4R,5R)-5-[6-[[(1S)-1-(4-fluoro-phenyl)ethyl]amino]-purin-9-yl]-3,4-dihydroxy-tetrahydro-furan-2-yl]methoxy-methylphosphonic acid] | 10 to 100 | 10 to 100 |
| O=P(O)(O)COC[C@H]1O[C@@H](n2cnc3c(NC4CCc5ccccc54)ncnc32)[C@H](O)[C@@H]1O (stereo partly shown) [Compound 52] | 100 to 1000 | 100 to 1000 |
| O=P(O)(O)COC[C@H]1O[C@@H](n2cnc3c(N4Cc5ccccc5C4)nc(Cl)nc32)[C@H](O)[C@@H]1O [Compound 54, [(2R,3S,4R,5R)-5-(2-chloro-6-isoindolin-2-yl-purin-9-yl)-3,4-dihydroxy-tetrahydro-furan-2-yl]methoxy-methylphosphonic acid] | 10 to 100 | 10 to 100 |
| O=P(O)(O)COC[C@H]1O[C@@H](n2cnc3c(OC4CCCC4)ncnc32)[C@H](O)[C@@H]1O [Compound 55, [(2R,3S,4R,5R)-5-[6-(cyclopentoxy)purin-9-yl]-3,4-dihydroxy-tetrahydrofuran-2-yl]-methoxymethylphos-phonic acid] | 100 to 1000 | > 1000 |
| O=P(O)(O)COC[C@H]1O[C@@H](n2ccc3c(NCc4ccccc4)nc(Cl)nc32)[C@H](O)[C@@H]1O [Compound 56, [(2R,3S,4R,5R)-5-[4-(benzylamino)-2-chloro-pyrrolo[2,3-d]-pyrimidin-7-yl]-3,4-dihydroxy-tetrahydro-furan-2-yl]methoxy-methylphosphonic acid] | 10 to 100 | 10 to 100 |
| O=P(O)(O)COC[C@H]1O[C@@H](n2cnc3c(NCc4ccccc4)cc(Cl)nc32)[C@H](O)[C@@H]1O [Compound 57, [(2R,3S,4R,5R)-5-[7-(benzylamino)-5-chloro-imidazo[4,5-b]pyridin-3-yl]-3,4-dihydroxy-tetrahydrofuran-2-yl]methoxymethylphosphonic acid] | 100 to 1000 | 100 to 1000 |
| C[C@H](Nc1nc(Cl)nc2c1ccn2[C@@H]1O[C@H](COCP(=O)(O)O)[C@@H](O)[C@H]1O)c1ccccc1 [Compound 60, [(2R,3S,4R,5R)-5-[2-chloro-4-[[(1S)-1-phenylethyl]amino]-pyrrolo[2,3-d]-pyrimidin-7-yl]-3,4-dihydroxy-tetrahydro-furan-2-yl]methoxy-methylphosphonic acid] | < 10 | 10 to 100 |
| C[C@@H](Nc1nc(Cl)nc2c1ccn2[C@@H]1O[C@H](COCP(=O)(O)O)[C@@H](O)[C@H]1O)c1ccccc1 [Compound 61, [(2R,3S,4R,5R)-5-[2-chloro-4-[[(1R)-1-phenylethyl]amino]pyrrolo[2,3-d]pyrimidin-7-yl]-3,4-dihydroxy-tetrahydrofuran-2-yl]methoxymethylphosphonic acid] | < 10 | < 10 |
| C[C@@H](Nc1nc(C#N)nc2c1ccn2[C@@H]1O[C@H](COCP(=O)(O)O)[C@@H](O)[C@H]1O)c1ccccc1 [Compound 62, [(2R,3S,4R,5R)-5-[2-cyano-4-[[(1R)-1-phenylethyl]amino]pyrrolo[2,3-d]pyrimidin-7-yl]-3,4-dihydroxy-tetrahydrofuran-2-yl]methoxymethylphosphonic acid] | < 10 | < 10 |
| C[C@H](Nc1nc(C#N)nc2c1ccn2[C@@H]1O[C@H](COCP(=O)(O)O)[C@@H](O)[C@H]1O)c1ccccc1 [Compound 67, [(2R,3S,4R,5R)-5-[2-cyano-4-[[(1S)-1-phenylethyl]amino]-pyrrolo[2,3-d]-pyrimidin-7-yl]-3,4-dihydroxy-tetrahydro-furan-2-yl]methoxy-methylphosphonic acid] | 10 to 100 | < 10 |
